Measured values: patent publication US11339124B2, “3-(benzylamino)-4-(cyclohexylamino)-n-(2-(piperazin-1-yl)ethyl)benzenesulfonamide derivatives and related ferrostatin-1 analogues as cell death inhibitors for treating e.g. stroke” (VIB VZW, priority 2018, dated 2022)
Read-outs that look alike come from different tables or passages of the source.

Key:
[1] = system: IMR-32 Neuroblastoma cells; assay: Erastin-induced ferroptosis in IMR-32 neuroblastoma cells (Sytox Green cell death readout); type: cell-based; conditions: IMR-32 cells, 10 μM erastin, compounds 1 nM to 1 μM, triplicate, read-out: IC50, antiferroptotic activity in response to erastin-induced ferroptosis
Procedure: In the present invention the potency of a compound inhibiting (or reducing) ferroptosis and/or oxytosis are determined in in vitro or in vivo assays. Typically in vitro assays are used to measure the potency of a candidate compound. Examples of suitable in vitro assays are cellular assays. One non-limiting example of an assay involves the use of the IMR-32 neuroblastoma cell line. The latter is stimulated to enter into ferroptosis upon stimulation with 10 μM erastin, a documented ferroptosis inducer (see for example Dixon et al (2012) Cell 149, 1060-1072 and ferroptosis inhibitors are evaluated for the prevention of erastin induced ferroptosis. Yet another assay is based the glutamate-induced cell death in the hippocampal cell line HT22 and ferroptosis/oxytosis inhibitors are evaluated for the prevention of cell death (see Henke N. et al (2013) Cell Death and Disease 4, e470). Still another assay is based on the sorafinib induced cell death (described to be iron dependent cell death) in hepatocellular carcinoma cells and ferroptosis inhibitors are evaluated for the prevention of cell death (see Louandre C. et al (2013) Int. J. Cancer 133, 1732). The calculated potency of a compound inhibiting ferroptosis and/or oxytosis is typically depicted as an IC50 value. Examples of suitable in vivo assays are typically pre-clinical disease models of for example mice for the diseases benefiting the application of ferroptosis and/or oxytosis inhibitors, as described herein. One non-limiting example of an in vivo assay is based on inducing liver damage in mice by administering the herbicide diquat dibromide monohydrate and ferroptosis inhibitors are evaluated based on reduced levels of liver transaminases in serum (see Ran Q et al (2004) J. Biol. Chem. 279, 53, 55137).
The IC50 values for the individual compounds of the invention were determined in the neuroblastoma, IMR-32 cell line. In brief, IMR-32 cells were subjected to 10 μM erastin, the latter compound is known to induce ferroptosis. A concentration gradient (ranging from 1 nM to 1 μM) of the compounds was applied to the cells. These experiments were performed in a 96-well format (in triplicate), and cell death was analyzed in a fluorescent plate reader by use of a fluorescent cell death dye (1.5 μM Sytox Green). The IC50 values depicted in Table 1 are the concentration values for the individual compounds which are able to overcome ferroptosis.

[2] = Kinetic solubility (turbidimetric method); type: physicochemical; conditions: 10 mM PBS pH 7.4, 2% DMSO, test range 3.125-200 μM, 2 h at 37° C.
Procedure: A turbidimetric method was used. First a series of DMSO compound stock solutions was prepared ([…]). An aliquot of 4 μL stock solution was added to 196 μL PBS buffer (pH 7.4). A series of concentrations were prepared (3.13-200 μM), including a blank on a microtiter plate. (2% DMSO-D6) The microtiter plate was shaken for 10 seconds and incubated for 2 hours at 37° C. When there was no turbidity measured at a given concentration the sample was assumed to be dissolved.

[3] = Microsomal (metabolic) stability, human liver microsomes; conditions: human liver microsomes, 0.5 mg protein/ml, 10 μM compound, 37° C.
Excerpt: By using the measured microsomal in vitro t1/2, a calculated value for the intrinsic clearance Clint can be determined. This value states the measure in which a drug that is not bound to plasma proteins is irreversibly removed from the body by the liver. This value is expressed in mL/min/kg which can be interpreted as the volume of blood in mL that is cleared of a drug per minute per kilogram of body weight. The CLint is less sensitive to used variables in ADME assays since the amount of microsomal protein and the volume of the incubation are all taken into account. (Sohlenius-Sternbeck et al., Xenobiotica, 2012, 42, 841-853)
Liver microsomes (20 mg protein/ml), NADPH regenerating system solutions A & B and 5 mM stock compound solution (100% DMSO) are prepared. The reaction mixture finally contains 713 μL purified water, 200 μL 0.5 M potassium phosphate pH 7.4, 50 μL NADPH regenerating system solution A (BD Biosciences Cat. No. 451220), 10 μL NADPH regenerating system solution B (BD Biosciences Cat. No. 451200) and 2 μL of the compound stock solution (10 μM final concentration). The reaction mixture is warmed to 37° C. for 5 minutes in a water bath and the reaction is initiated by addition of 25 μL of liver microsomes (0.5 mg protein/ml final concentration). At different time points (0 min-15 min-30 min-60 min-120 min-240 min-360 min-24 h), 20 μL is withdrawn and 80 μL cold acetonitrile is added on ice for 10 minutes. Then the mixtures are centrifuged at 13 000 rpm for 5 min at 4° C. The supernatant is further diluted in 90% water/MeCN (1/25) to fall within the range of the LC/MS/MS analysis. At each time point, the compound is analysed using LC/MS/MS with the same UPLC system as described above. A standard curve of six points was made to fit the measured concentrations. Verapamil was used as a positive control.
All obtained readouts were processed using Microsoft Excel. In order to determine the microsomal half-life t1/2 of the compounds, the rate constant k was determined by plotting the exponential decay graphs using GraFit. Microsomal t1/2 was determined using the following formula: […]

[4] = system: acute iron poisoning induced organ damage; assay: Acute iron poisoning (FeSO4) induced organ damage, plasma LDH and creatine kinase; type: in vivo
Procedure: Equimolar amounts of ferroptosis inhibitors (˜10 mg/kg) were injected iv 15 min before ip injection of FeSO4 (300 mg/kg). Plasma was collected 2 h after FeSO4-challenge and analyzed for the presence of lactate dehydrogenase (LDH) and creatine kinase. Fer-1 is ferrostatin, 3234 is compound 37,3206 is compound 38 and 3203 is compound 39 (see Table 1 for numbering and structure). […] Equimolar amounts of ferroptosis inhibitors (˜10 mg/kg) were injected iv 30 min after ip injection of FeSO4 (300 mg/kg). Plasma was collected 8 h after FeSO4-challenge and analyzed for the presence of lactate dehydrogenase (LDH) and creatine kinase.
We identified acute iron poisoning as a novel experimental model for in rhabdomyolysis-induced kidney failure.

Row | SMILES | Solubility (kinetic) [2] | IC50 ([1]; Homo sapiens) | IC50 [1] | Microsomal stability (t1/2), Human [3] | Protection against organ damage: plasma lactate dehydrogenase (LDH) and creatine kinase levels, prophylactic setting ([4]; ~10 mg/kg iv 15 min before FeSO4 300 mg/kg ip, plasma 2 h after challenge (FIG. 5A)) | Protection against organ damage: plasma lactate dehydrogenase (LDH) and creatine kinase levels, therapeutic setting ([4]; ~10 mg/kg iv 30 min after FeSO4 300 mg/kg ip, plasma 8 h after challenge (FIG. 5B))
1 | CN(C)CCNS(=O)(=O)c1ccc(NC2CCCCC2)c(NCc2ccccc2)c1 [Compound 30, 3-(benzylamino)-4-(cyclohexylamino)-N-(2-(dimethylamino)ethyl)benzenesulfonamide] | >200 µM | 0.554 µM |  |  |  | 
2 | Cl.O=S(=O)(NCCN1CCNCC1)c1ccc(NC2CCCCC2)c(NCc2ccncc2)c1 [Compound 49, 4-(cyclohexylamino)-N-(2-(piperazin-1-yl)ethyl)-3-((pyridin-4-ylmethyl)amino)benzenesulfonamide Hydrochloride] | >200 µM | 0.442 µM |  |  |  | 
3 | CCOC(=O)c1ccc(NC2CCCCC2)c(N)c1 [Compound 1, ferrostatin-1] | >200 µM |  | 0.033 µM | 6.54 ± 0.18 min | does not show any significant protection | only shows minor protection
4 | CN(C)CCNS(=O)(=O)c1ccc(NC2CCCCC2)c(NCc2ccncc2)c1 [Compound 40, 4-(cyclohexylamino)-N-(2-(dimethylamino)ethyl)-3-((pyridin-4-ylmethyl)amino)benzenesulfonamide] | >200 µM | 1.56 µM |  |  |  | 
5 | CN1CCN(CCNS(=O)(=O)c2ccc(NC3CCCCC3)c(NCc3ccccc3)c2)CC1 [Compound 34, 3-(benzylamino)-4-(cyclohexylamino)-N-(2-(4-methylpiperazin-1-yl)ethyl)benzenesulfonamide] | >200 µM | 1.07 µM |  |  |  | 
6 | CN1CCN(CCNS(=O)(=O)c2ccc(NC3CCCCC3)c(NCc3ccncc3)c2)CC1 [Compound 44, 4-(cyclohexylamino)-N-(2-(4-methylpiperazin-1-yl)ethyl)-3-((pyridin-4-ylmethyl)amino)benzenesulfonamide] | >200 µM | 1.52 µM |  |  |  | 
7 | O=S(=O)(NCCN1CCOCC1)c1ccc(NC2CCCCC2)c(NCc2ccncc2)c1 [Compound 45, 4-(cyclohexylamino)-N-(2-morpholinoethyl)-3-((pyridin-4-ylmethyl)amino)benzenesulfonamide] | >200 µM | 0.191 µM |  |  |  | 
8 | CNCCNS(=O)(=O)c1ccc(NC2CCCCC2)c(NCc2ccncc2)c1.Cl [Compound 47, 4-(cyclohexylamino)-N-(2-(methylamino)ethyl)-3-((pyridin-4-ylmethyl)amino)benzenesulfonamide Hydrochloride] | >200 µM | 0.157 µM |  |  |  | 

The next lines start with results.

Row | Solubility (kinetic) [2] | SMILES | IC50 ([1]; Homo sapiens) | IC50 [1] | Microsomal stability (t1/2), Human [3] | Protection against organ damage: plasma lactate dehydrogenase (LDH) and creatine kinase levels, prophylactic setting ([4]; ~10 mg/kg iv 15 min before FeSO4 300 mg/kg ip, plasma 2 h after challenge (FIG. 5A)) | Protection against organ damage: plasma lactate dehydrogenase (LDH) and creatine kinase levels, therapeutic setting ([4]; ~10 mg/kg iv 30 min after FeSO4 300 mg/kg ip, plasma 8 h after challenge (FIG. 5B))
9 | 100 to 200 µM | Cl.NCCNS(=O)(=O)c1ccc(NC2CCCCC2)c(NCc2ccncc2)c1 [Compound 48, N-(2-aminoethyl)-4-(cyclohexylamino)-3-((pyridin-4-ylmethyl)amino)benzenesulfonamide Hydrochloride] | 0.112 µM |  |  |  | 
10 | >200 µM | COCCNS(=O)(=O)c1ccc(NC2CCCCC2)c(NCc2ccncc2)c1 [Compound 46, 4-(cyclohexylamino)-N-(2-methoxyethyl)-3-((pyridin-4-ylmethyl)amino)benzenesulfonamide] | 0.097 µM |  |  |  | 
11 | >200 µM | Nc1cc(S(=O)(=O)NCCN2CCNCC2)ccc1NC1CCCCC1 [Compound 29, 3-amino-4-(cyclohexylamino)-N-(2-(piperazin-1-yl)ethyl)benzenesulfonamide] | 0.296 µM |  |  |  | 
12 | >200 µM | CN(C)CCNS(=O)(=O)c1ccc(NC2CCCCC2)c(N)c1 [Compound 20, 3-amino-4-(cyclohexylamino)-N-(2-(dimethylamino)ethyl)benzenesulfonamide] | 0.16 µM |  |  |  | 
13 | >200 µM | CNCCNS(=O)(=O)c1ccc(NC2CCCCC2)c(N)c1.Cl [Compound 27, 3-amino-4-(cyclohexylamino)-N-(2-(methylamino)ethyl)benzenesulfonamide Hydrochloride] | 0.214 µM |  |  |  | 
14 | >200 µM | Nc1cc(S(=O)(=O)NCCN2CCOCC2)ccc1NC1CCCCC1 [Compound 25, 3-amino-4-(cyclohexylamino)-N-(2-morpholinoethyl)benzenesulfonamide] | 0.448 µM |  |  |  | 
15 | >200 µM | COCCNS(=O)(=O)c1ccc(NC2CCCCC2)c(N)c1 [Compound 26, 3-amino-4-(cyclohexylamino)-N-(2-methoxyethyl)benzenesulfonamide] | 0.492 µM |  |  |  | 
16 | >200 µM | Cl.NCCNS(=O)(=O)c1ccc(NC2CCCCC2)c(N)c1 [Compound 28, 3-amino-N-(2-aminoethyl)-4-(cyclohexylamino)benzenesulfonamide Hydrochloride] | 0.306 µM |  |  |  | 
17 | 25 to 50 µM | COCCNS(=O)(=O)c1ccc(NC2CCCCC2)c(NCc2ccccc2)c1 [Compound 36, 3-(benzylamino)-4-(cyclohexylamino)-N-(2-methoxyethyl)benzenesulfonamide] | 0.022 µM |  |  |  | 
18 | >200 µM | CN1CCN(CCNS(=O)(=O)c2ccc(NC3CCCCC3)c(N)c2)CC1 [Compound 24, 3-amino-4-(cyclohexylamino)-N-(2-(4-methylpiperazin-1-yl)ethyl)benzenesulfonamide] | 0.236 µM |  |  |  | 
